Measurements taken from BigSolDB 2.1.

C[n+]1ccn(CCOCCOCCn2cc[n+](C)c2)c1.F[P-](F)(F)(F)(F)F.F[P-](F)(F)(F)(F)F
solubility (mole fraction)
Conditions | 283 K | 288 K | 293 K | 298 K | 303 K | 308 K
in DMF | 0.098 | 0.101 | 0.105 | 0.109 | 0.113 | –
in DMSO | – | – | 0.106 | 0.119 | 0.131 | 0.14
in ethanol | 3.3e-05 | 4e-05 | 4.7e-05 | 5.7e-05 | 7.2e-05 | –
in methanol | 0.000198 | 0.000231 | 0.000285 | 0.000369 | 0.000502 | –
in water | 0.00015 | 0.000197 | 0.000257 | 0.000334 | 0.00043 | –
